Experimental findings from patent publication US4447453A, “Anti-peptic ulcer agent” (Chugai Seiyaku Kabushiki Kaisha, priority 1980, dated 1984) are described below.

Data set [1] in a line: Acute oral toxicity (LD50) in ddY mice. The conditions noted are these: mouse, in vivo, male ddY mice, suspension in 2% aqueous gum arabic. As for the experimental part: The compounds listed above have very low toxicity, and the first six compounds have following the LD50 values when they are administered orally to ddY strain male mice (5 weeks old and weighing from 26-30 g) in the form of a suspension in a 2% aqueous gum arabic: […]

Data set [2] deals with rats with stress-induced ulcer. Nature of the data set: Restraint and water immersion stress ulcer test in rats (Takagi et al.). It counts as in vivo, rat (Sprague-Dawley, male). The conditions noted are these: for inhibition in vivo at 50 mg/kg / inhibition in vivo at 100 mg/kg / inhibition in vivo at 200 mg/kg: Rattus norvegicus. As for the experimental part:
Groups of 7-week-old Sprague-Dawley male rats each consisting of 10 members were starved for 24 hours and administered orally the compounds of the present invention. Ten minutes later, they were confined in a restrainer cage according to the method of Takagi et al. (Japanese Journal of Pharmacology, 18, 9-18, 1968), and the cage was placed vertically in a water tank at 23°-24° C. until the rats were immersed in the water to the depth of the processus xiphoideus. Sixteen hours later, the rats were killed with excess ether and had their stomach removed. Each stomach was incised along the greater curvature after the surface of the gastric mucosa and serous membrane was lightly fixed with 1% formalin. The diameter (mm) of the ulcers developed in each rat was summed and the sum was used as the ulcer index for each rat.
The activity of the compounds of the present invention to cure peptic ulcer was measured as in Example 2.

In data set [3] the test system is ulcers developed in Shay rats. Put plainly: Pylorus ligation (Shay) ulcer test in rats. It counts as in vivo, rat (Sprague-Dawley, male). As for the experimental part: Groups of 8-week-old Spraque-Dawley male rats each consisting of 10 members were starved for 48 hours, anaethesized with ether and had their pylorus ligated in accordance with the method of Shay et al. (Gasteroenterology, 5, 43-61, 1945). Immediately thereafter, they were administered the compounds of the present invention intra-duodenally or intraperitoneally. Eighteen hours later, they were killed with excess ether and the gastric mucus membrane was removed and observed under a stereoscopic microscope (×10). The diameter (mm) of the ulcers developed in each rat was summed and the sum was used as the ulcer index of each rat.
The activity of the compounds of the present invention to cure peptic ulcer was measured as in Example 1. The test compound was administered in the duodenum.

The mark [4] stands for this setting: Table 2, oral, 50 mg/kg, 16 h immersion.
The mark [5] stands for this setting: Table 2, oral, 100 mg/kg, 16 h immersion.
The mark [6] stands for this setting: Table 2, oral, 200 mg/kg, 16 h immersion.
[7] abbreviates: Table 1, intra-duodenal, 50 mg/kg, 18 h.
Setting [8] is: Table 1, intra-duodenal, 100 mg/kg, 18 h.
[9] abbreviates: Table 1, intra-duodenal, 200 mg/kg, 18 h.
Setting [10] is: Table 1, intra-peritoneal, 50 mg/kg, 18 h.
Where [11] appears, read: Table 4, as in Example 2 (oral), 200 mg/kg.
The mark [12] stands for this setting: Table 3, administered in the duodenum, 100 mg/kg.

A value given as a limit tells only on which side of the number the result lay.

In turn, `O=C(O)c1ccccc1Nc1cc(Cl)ccc1C(=O)O` [Compound 1] displayed a median lethal dose (LD50) in data set [1] of 2100 mg/kg.
For `Cc1ccc(Nc2cc(Cl)ccc2C(=O)O)c(C(=O)O)c1` [Compound 2], the inhibition in vivo at 50 mg/kg in data set [2] (setting [4]) was 22.5%. The inhibition in vivo at 100 mg/kg in data set [2] (setting [5]) worked out at 89.2%. Moreover, the inhibition in vivo at 200 mg/kg in data set [2] (setting [6]) was found to be 100%. For the same molecule, the “ulcer index (means ± S.E.)” value in data set [2] (setting [4]) amounted to 12.0 ± 6.2 mm; in data set [2] (setting [5]) it was 1.7 ± 1.2 mm; in data set [2] (setting [6]), 0 mm; in data set [3] (setting [7]), 0.5 ± 0.3 mm; in data set [3] (setting [8]) it was 0.3 ± 0.3 mm; in data set [3] (setting [9]), 0 mm. For the same molecule, the “ulcer index (means ± S.E.)” value in data set [3] (setting [10]) turned out to be 0.8 ± 0.4 mm. Moreover, the LD50 in data set [1] is > 1500 mg/kg. Moreover, the inhibition in data set [3] (setting [7]) worked out at 87.8%; in data set [3] (setting [8]), 92.7%; in data set [3] (setting [9]) it was 100%; in data set [3] (setting [10]), 80.7%.
On to `O=C(O)c1ccc(Cl)cc1Nc1cc(Cl)ccc1C(=O)O` [Compound 3], for which 50 mg/kg produced 23.3% inhibition in vivo in data set [2] (setting [4]). Also, testing at 100 mg/kg in data set [2] (setting [5]) gave an inhibition in vivo of 49.5%. This molecule had an inhibition in vivo at 200 mg/kg in data set [2] (setting [6]) of 92%. Besides, the “ulcer index (means ± S.E.)” value in data set [2] (setting [4]) is listed as 14.3 ± 3.9 mm; in data set [2] (setting [5]), 9.4 ± 4.8 mm; in data set [2] (setting [6]), 1.5 ± 0.8 mm; in data set [3] (setting [7]) it was 2.3 ± 0.7 mm; in data set [3] (setting [8]), 0.9 ± 0.6 mm; in data set [3] (setting [9]), 0 mm. In addition, the “ulcer index (means ± S.E.)” value in data set [3] (setting [10]) is given as 0.3 ± 0.3 mm. For the same molecule, in data set [1], the LD50 was > 2000 mg/kg. Also, the inhibition turned out to be 33.7% in data set [3] (setting [7]), 78.0% in data set [3] (setting [8]), 100% in data set [3] (setting [9]) and 95.7% in data set [3] (setting [10]).
`Cc1ccc(C)c(C(=O)O)c1Nc1cc(Cl)ccc1C(=O)O` [Compound 4] displayed an LD50 in data set [1] of 3000 mg/kg.
Regarding `Cc1c(Cl)ccc(C(=O)O)c1Nc1ccccc1C(=O)O` [Compound 5], the inhibition in vivo at 50 mg/kg in data set [2] (setting [4]) came out at 38.5%. Besides, in data set [2] (setting [5]), the inhibition in vivo at 100 mg/kg stood at 88.2%. The molecule also registered an inhibition in vivo at 200 mg/kg in data set [2] (setting [6]) of 100%. The “ulcer index (means ± S.E.)” value was determined as 9.6 ± 4.4 mm in data set [2] (setting [4]); 1.8 ± 0.9 mm in data set [2] (setting [5]); 0 mm in data set [2] (setting [6]); 1.3 ± 0.6 mm in data set [3] (setting [7]); 0.1 ± 0.1 mm in data set [3] (setting [8]); 0 mm in data set [3] (setting [9]). For the same molecule, the “ulcer index (means ± S.E.)” value in data set [3] (setting [10]) turned out to be 0 mm. The same molecule returned an LD50 in data set [1] of 1250 mg/kg. The inhibition in data set [3] (setting [7]) is 67.1%; in data set [3] (setting [8]), 96.6%; in data set [3] (setting [9]), 100%; in data set [3] (setting [10]), 100%.
`Cc1ccc(C(=O)O)c(Nc2ccccc2C(=O)O)c1` [Compound 6] came in with an inhibition in vivo at 50 mg/kg in data set [2] (setting [4]) of 34.3%. In data set [2] (setting [5]), this molecule had an inhibition in vivo at 100 mg/kg of 92.9%. In data set [2] (setting [6]), this molecule yielded an inhibition in vivo at 200 mg/kg of 100%. Moreover, the “ulcer index (means ± S.E.)” value was determined as 12.1 ± 3.5 mm in data set [2] (setting [4]); 1.5 ± 1.1 mm in data set [2] (setting [5]); 0 mm in data set [2] (setting [6]); 1.4 ± 0.7 mm in data set [3] (setting [7]); 0.3 ± 0.3 mm in data set [3] (setting [8]); 0 mm in data set [3] (setting [9]). Further, the “ulcer index (means ± S.E.)” value in data set [3] (setting [10]) was determined as 2.0 ± 0.7 mm. In data set [1], the 50% lethal dose (LD50) was > 2000 mg/kg. Besides, the inhibition in data set [3] (setting [7]) is recorded as 58.6%; in data set [3] (setting [8]) it was 92.5%; in data set [3] (setting [9]), 100%; in data set [3] (setting [10]), 48.6%.
As to `COc1cc(Nc2ccccc2C(=O)O)c(C(=O)O)cc1OC` [Compound 7], in data set [2] (setting [11]), the inhibition in vivo at 200 mg/kg was found to be 98.4% and the “ulcer index (means ± S.E.)” value is on record as 0.2 ± 0.1 mm.
As for `COc1ccc(C(=O)O)c(Nc2cc(Cl)ccc2C(=O)O)c1` [Compound 8], in data set [2] (setting [11]), 200 mg/kg produced 96.7% inhibition in vivo and the “ulcer index (means ± S.E.)” value is 1.7 ± 1.3 mm. In data set [3] (setting [12]), the inhibition amounted to 100.0% and the “ulcer index (means ± S.E.)” value is on record as 0 ± 0 mm.
In the same order, the values of `Cc1ccc(C(=O)O)c(Nc2cc(Cl)ccc2C(=O)O)c1C` [Compound 9] are 83.4%, 6.5 ± 3.4 mm, 80.1% and 0.7 ± 0.7 mm.
In the same order, the values of `Cc1cc(Nc2ccccc2C(=O)O)c(C(=O)O)cc1C` [Compound 10] are 90.1%, 3.8 ± 1.5 mm, 100.0% and 0 ± 0 mm.
Taken in the same sequence, the figures for `Cc1cc(C)c(C(=O)O)c(Nc2ccccc2C(=O)O)c1` [Compound 11] were 96.9%, 1.2 ± 0.9 mm, 60.0% and 1.4 ± 0.6 mm.
Take `Cc1cc(C(=O)O)c(Nc2ccccc2C(=O)O)cc1Cl` [Compound 12]: in data set [2] (setting [11]), the inhibition in vivo at 200 mg/kg was 96.7% and the “ulcer index (means ± S.E.)” value came out at 1.3 ± 0.7 mm. In data set [3] (setting [12]), the inhibition is recorded as 91.8% and the “ulcer index (means ± S.E.)” value is recorded as 0.3 ± 0.3 mm.
For the molecule `Cc1cc(C)c(C(=O)O)c(Nc2cc(Cl)ccc2C(=O)O)c1` [Compound 13], in data set [2] (setting [11]), 200 mg/kg produced 70% inhibition in vivo and the “ulcer index (means ± S.E.)” value was 11.6 ± 6.2 mm. In addition, in data set [3] (setting [12]), the inhibition came out at 50.0% and the “ulcer index (means ± S.E.)” value is reported as 1.0 ± 0.7 mm.
In the same order, the values of `Cc1ccc(C(=O)O)c(Nc2ccccc2C(=O)O)c1C` [Compound 14] are 90.9%, 3.5 ± 1.6 mm, 78.5% and 0.4 ± 0.4 mm.
Take `Cc1cc(Nc2cc(Cl)ccc2C(=O)O)c(C(=O)O)cc1C` [Compound 15]: in data set [2] (setting [11]), testing at 200 mg/kg gave an inhibition in vivo of 78.8% and the “ulcer index (means ± S.E.)” value was 8.2 ± 3.2 mm.
